# Read-outs that look alike come from different tables or passages of the source.
# Experiments:
# Assay in all cases: biochemical
# Parameters in all cases: Eurofins KinaseProfiler full panel at Km ATP, residual kinase activity (%) relative to DMSO
# DCAMKL1(h) = molecular target: T1, DCAMKL1(h) (Homo sapiens, UniProt O15075)
# T1 construct: gene DCLK1
# T1 sequence (O15075 1-740): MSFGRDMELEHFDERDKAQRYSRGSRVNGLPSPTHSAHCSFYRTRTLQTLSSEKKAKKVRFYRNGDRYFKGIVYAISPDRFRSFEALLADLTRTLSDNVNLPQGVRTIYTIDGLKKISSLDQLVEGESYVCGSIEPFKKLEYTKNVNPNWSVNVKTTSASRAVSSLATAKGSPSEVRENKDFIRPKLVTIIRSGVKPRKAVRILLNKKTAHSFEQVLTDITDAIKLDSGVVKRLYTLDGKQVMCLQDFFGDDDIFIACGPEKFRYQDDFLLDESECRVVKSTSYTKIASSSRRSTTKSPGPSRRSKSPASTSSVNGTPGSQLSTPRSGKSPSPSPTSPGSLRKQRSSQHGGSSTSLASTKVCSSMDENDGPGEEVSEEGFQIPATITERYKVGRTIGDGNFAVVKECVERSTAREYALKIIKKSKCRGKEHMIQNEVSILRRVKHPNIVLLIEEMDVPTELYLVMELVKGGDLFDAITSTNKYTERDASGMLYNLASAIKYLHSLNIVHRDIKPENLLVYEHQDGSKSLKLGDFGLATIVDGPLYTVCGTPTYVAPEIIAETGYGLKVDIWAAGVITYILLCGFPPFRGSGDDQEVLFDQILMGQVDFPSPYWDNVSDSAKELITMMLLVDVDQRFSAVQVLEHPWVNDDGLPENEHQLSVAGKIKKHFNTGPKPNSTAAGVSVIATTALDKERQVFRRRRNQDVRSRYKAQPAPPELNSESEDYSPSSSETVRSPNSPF
# How it was run: (§1)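 Compounds screened at 10 µM in radiometric kinase activity assays at Km ATP, reported as remaining kinase activity (%). A KINOMEscan competition-binding screen at 10 µM measured DNA-tagged kinase retained on immobilized active-site ligand by qPCR.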
# PRAK(h) = molecular target: T2, PRAK(h) (Homo sapiens, UniProt Q8IW41)
# T2 construct: gene MAPKAPK5
# T2 sequence (Q8IW41 1-473): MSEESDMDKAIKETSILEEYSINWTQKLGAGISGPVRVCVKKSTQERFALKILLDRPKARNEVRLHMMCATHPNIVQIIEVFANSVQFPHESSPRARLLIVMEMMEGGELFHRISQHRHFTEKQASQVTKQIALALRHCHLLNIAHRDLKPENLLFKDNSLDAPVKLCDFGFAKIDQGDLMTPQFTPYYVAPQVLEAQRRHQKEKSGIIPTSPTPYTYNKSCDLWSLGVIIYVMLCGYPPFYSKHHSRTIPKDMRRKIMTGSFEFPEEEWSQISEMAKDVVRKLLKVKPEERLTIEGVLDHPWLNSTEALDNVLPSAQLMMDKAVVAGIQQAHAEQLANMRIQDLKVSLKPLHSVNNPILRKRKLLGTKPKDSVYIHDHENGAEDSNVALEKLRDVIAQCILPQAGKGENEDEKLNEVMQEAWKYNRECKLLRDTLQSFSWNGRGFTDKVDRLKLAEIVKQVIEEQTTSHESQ
# How it was run: as §1
# SGK3(h) = molecular target: T3, SGK3(h) (Homo sapiens, UniProt Q96BR1)
# T3 sequence (Q96BR1 1-496): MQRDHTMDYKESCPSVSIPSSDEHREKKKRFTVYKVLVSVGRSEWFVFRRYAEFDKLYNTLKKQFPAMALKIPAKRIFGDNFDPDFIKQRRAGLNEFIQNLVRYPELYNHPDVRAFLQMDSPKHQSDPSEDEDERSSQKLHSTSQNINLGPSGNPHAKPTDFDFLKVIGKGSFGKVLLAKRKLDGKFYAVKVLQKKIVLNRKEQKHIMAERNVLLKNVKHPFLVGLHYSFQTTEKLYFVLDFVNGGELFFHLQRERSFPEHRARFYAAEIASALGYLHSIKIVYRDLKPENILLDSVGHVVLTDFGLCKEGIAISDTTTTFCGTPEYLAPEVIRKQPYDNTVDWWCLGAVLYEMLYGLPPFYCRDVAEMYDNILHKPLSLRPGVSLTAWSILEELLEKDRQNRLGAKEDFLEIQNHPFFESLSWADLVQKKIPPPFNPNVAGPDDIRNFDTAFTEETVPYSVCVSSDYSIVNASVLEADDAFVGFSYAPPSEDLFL
# How it was run: as §1
# TSSK2(h) = molecular target: T4, TSSK2(h) (Homo sapiens, UniProt Q96PF2)
# T4 sequence (Q96PF2 1-358): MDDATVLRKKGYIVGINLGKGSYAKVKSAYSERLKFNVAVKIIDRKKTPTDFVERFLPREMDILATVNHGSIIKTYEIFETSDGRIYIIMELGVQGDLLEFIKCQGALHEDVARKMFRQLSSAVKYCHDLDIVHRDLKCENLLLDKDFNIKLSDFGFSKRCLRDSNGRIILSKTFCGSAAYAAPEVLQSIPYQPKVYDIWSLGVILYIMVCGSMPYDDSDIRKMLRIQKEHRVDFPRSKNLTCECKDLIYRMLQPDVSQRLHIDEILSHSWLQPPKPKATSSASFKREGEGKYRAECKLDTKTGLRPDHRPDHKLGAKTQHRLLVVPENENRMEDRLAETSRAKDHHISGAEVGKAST
# How it was run: as §1
# [1] = read-out: Residual activity (%) 5ay
# [2] = read-out: Residual activity (%) Spautin-1 5aa
# [3] = read-out: Residual activity (%) 5at
# [4] = read-out: Residual activity (%) 5as
compound,measurement,setting,value
"COc1ccc2ncnc(Nc3cccc(F)c3)c2c1 [5ay, N-(3-Fluorophenyl)-6-Methoxy-4-Quinazolinamine]",remaining activity at 10 µM,DCAMKL1(h); [1],84%
same,remaining activity at 10 µM,PRAK(h); [1],102%
same,remaining activity at 10 µM,SGK3(h); [1],91%
same,remaining activity at 10 µM,TSSK2(h); [1],103%
"Fc1ccc(CNc2ncnc3ccc(F)cc23)cc1 [5aa, 6-Fluoro-N-(4-fluorobenzyl)-4-Quinazolinamine]",remaining activity at 10 µM,DCAMKL1(h); [2],95%
same,remaining activity at 10 µM,PRAK(h); [2],107%
same,remaining activity at 10 µM,SGK3(h); [2],95%
same,remaining activity at 10 µM,TSSK2(h); [2],101%
"Fc1ccc2ncnc(NCCc3ccc(Cl)cc3)c2c1 [5at, N-[2-(4-Chlorophenyl)Ethyl]-6-Fluoro-4-Quinazolinamine]",remaining activity at 10 µM,DCAMKL1(h); [3],89%
same,remaining activity at 10 µM,PRAK(h); [3],91%
same,remaining activity at 10 µM,SGK3(h); [3],93%
same,remaining activity at 10 µM,TSSK2(h); [3],103%
"Fc1ccc(CCNc2ncnc3ccc(F)cc23)cc1 [5as, 6-Fluoro-N-[2-(4-Fluorophenyl)Ethyl]-4-Quinazolinamine]",remaining activity at 10 µM,DCAMKL1(h); [4],82%
same,remaining activity at 10 µM,PRAK(h); [4],108%
same,remaining activity at 10 µM,SGK3(h); [4],88%
same,remaining activity at 10 µM,TSSK2(h); [4],97%

# — publication PMC7827406, “Structure–Activity Relationship (SAR) Study of Spautin-1 to Entail the Discovery of Novel NEK4 Inhibitors” (International Journal of Molecular Sciences, 2021)
